Measurements as given in US10583387B2, “Guanidine compounds for carbon dioxide capture” (UT-Battelle, LLC, priority 2017, dated 2020).
In brackets after ≈: the same amount, converted by molar mass. Several values for one entry are separate records, joined by “and”; a condition that tells them apart may be missing. Equal values may be shown once.

Assays:
[1] = cited from earlier work
[2] = CO2 release and PyBIG regeneration by solar oven heating; type: physicochemical
Description: The CO2 release from the PyBIGH2(CO3)(H2O)4 crystals was conducted by solar heating with a solar oven. The oven consists of a vacuum-insulated borosilicate tube placed in the focal point of two adjustable parabolic reflectors. The temperature inside the tube was monitored with a thermocouple. The PyBIGH2(CO3)(H2O)4 samples 36.4-45.0 mg, 0.095-0.118 mmol) were loaded in 1 mL glass vials, which were placed inside the oven tube. The solar oven was then placed in the full sun and oriented to capture the maximum amount of sunlight. The temperature was ramped to the targeted values of 120° C., 130° C., 140° C., 150° C., or 160° C. as fast as possible (typically within 3 to 10 minutes), then held within ±2° C. by intermittently moving the oven out of the sun, or/and closing the reflectors. The samples were subsequently removed from the tube, allowed to cool to room temperature, and weighed to determine their mass loss. The resulting yellow solids were analyzed by FTIR to confirm the disappearance of the carbonate and water peaks. The solar regeneration experiments were repeated three times at each temperature, and the average values and standard deviations calculated.
However, considering that this transformation is highly endothermic, the possibility of using concentrated solar power to render the process more energy sustainable was explored. For the initial small-scale proof of concept, a solar oven was used to heat solid PyBIGH2(CO3)(H2O)4 samples (˜38 mg, 0.1 mmol) at five different temperatures ranging between 120 and 160° C. FTIR analyses corroborated the release of CO2, most evidently noticeable by the disappearance of the strong peak at 1361 cm^−1 corresponding to the stretching mode of the carbonate anion.

[3] = cited from earlier work; for reaction rate of CO2 with sorbent: 25° C.
[4] = Reaction enthalpies of elementary steps in DAC with PyBIG (van't Hoff analyses); type: physicochemical; details: for ΔH, PyBIGH2(CO3)(H2O)4 crystallization: equation 6
Description: It is instructive to compare the thermodynamics of the CO2 absorption by PyBIG with those of other sorbents used in DAC. For example, amine sorbents have absorption enthalpies in the range of 60-80 kJ/mol. […] Thus, the actual CO2 ‘binding’ by PyBIG, corresponding to equations 3-5 combined, has an enthalpy of −109.8 kJ/mol. This is essentially the same as the enthalpy of CO2 absorption by aqueous NaOH. The crystallization step (equation 6) then adds −47 kJ/mol, to make the overall absorption process a combined −156 kJ/mol, which is about twice as exothermic compared to the CO2 absorption by a typical amine sorbent. However, dissolution of PyBIG (equation 1), which is endothermic (+42.5 kJ/mol) and essentially offsets the exothermic crystallization in step 6, and proton transfer from water to the guanidine groups (equation 2), which is also endothermic (+43.6), brings the overall enthalpy for CO2 capture by PyBIG (equation 7) to −70.7 kJ/mol.

[5] = Differential scanning calorimetry (DSC), enthalpy of CO2 release; type: physicochemical
Description: In order to determine the enthalpy of CO2 release from PyBIGH2(CO3)(H2O)4, differential scanning calorimetry (DSC) was employed. DSC is a common technique used in thermal analysis of solids. […] Unfortunately, the extensive overlap between the peaks prevented a determination of the heats associated with each thermal event. Instead, all the peaks were integrated together to obtain the overall enthalpy of desorption for PyBIGH2(CO3)(H2O)4, which amounts to 223±4 kJ/mol. While the overall reaction is highly endothermic, it should be taken into account that, for each CO2 molecule released from PyBIGH2(CO3)(H2O)4, there are four molecules of hydration that are desorbed (plus a fifth water molecule that is a bi-product of the carbonate decomposition).
In order to determine the fraction of the reaction enthalpy corresponding to the CO2 release from the carbonate, anhydrous PyBIGH2(CO3) was prepared by overnight vacuum pumping of PyBIGH2(CO3)(H2O)4 at 30° C. […] The difference between the measured endotherms of PyBIGH2(CO3)(H2O)4 and PyBIGH2(CO3), of 148 kJ/mol, can be assigned to dehydration of the carbonate salt. This corresponds to an average of 37 kJ/mol per water of hydration, which is close to the enthalpy of vaporization for liquid water, of 40.65 kJ/mol. While a large fraction of the heat required to release the CO2 is spent on water evaporation, part of the waste heat could be recovered by process modifications that involve water condensation steps in which the resulting heat is collected and re-used via heat exchangers. Alternatively, vacuum-drying operations that typically require less energy than heat drying can be employed for dehydration of PyBIGH2(CO3)(H2O)4 prior to CO2 release. The use of renewable sources of energy, such as concentrated solar power, is also herein being considered to make the overall DAC process energy sustainable.

[6] = Thermogravimetric analysis (TGA-MS) and oven heating of the carbonate crystals; type: physicochemical
Description: Thermogravimetric analysis coupled with mass spectrometry (TGA-MS) provided a more quantitative picture of the decomposition process.

[7] = pKa by potentiometric titration; type: physicochemical; details: 25° C., read-out: pKa of the two guanidinium groups
[8] = Accelerated aging of PyBIG (thermal stability); type: physicochemical
physchem = details: pH 10, water, thermodynamic from solid
[9] = Aqueous solubility and solubility product (variable-temperature solubility measurements); details: saturated solution (~10 mM)
[10] = Equilibrium constant for the amino acid regeneration reaction (equation 11); type: physicochemical; details: glycine sorbent, ideal conditions
Description: In addition to the enthalpies of CO2 absorption and release, another important thermodynamic parameter is the equilibrium constant for the amino acid regeneration reaction (equation 10), which defines the efficiency limit for sorbent regeneration.

[11] = liquid; cited from earlier work

O=C=O [CO2, carbon dioxide]
ΔH, CO2 dissolution ([1]; equation 3): -4.64 kcal/mol

O=C(O)O [CO3^2−, carbonate]
ΔH, CO3^2− formation ([1]; equation 5): -9.66 kcal/mol

O=C([O-])[O-].[Ca+2] [CaCO3, reference compound]
CO2 release on solar heating ([2]; two hours at 160° C.): no CO2 release was observed

O=C(O)O [HCO3^−, bicarbonate]
ΔH, HCO3^− formation ([1]; equation 4): -12 kcal/mol

[Na+].[OH-] [NaOH]
flux of CO2 absorbed from air ([3]; 1 M solution): around 30 μmol/m^2/s

N=C(N)NN=Cc1cccc(C=NNC(=N)N)n1.O.O.O.O.O=C(O)O [PyBIGH2(CO3)(H2O)4]
ΔH, PyBIGH2(CO3)(H2O)4 crystallization [4]: -11.2 kcal/mol
Weight loss ([2]; 120 ° C., 30 min): 32.3 ± 0.8%
Weight loss ([2]; 130 ° C., 15 min): 32.3 ± 0.8%
Weight loss ([2]; 140 ° C., 10 min): 33.2 ± 0.8%
Weight loss ([2]; 150 ° C., 5 min): 32.5 ± 0.8%
Weight loss ([2]; 160 ° C., 2 min): 33.8 ± 0.3%
average enthalpy per water of hydration [5]: 8.84 kcal/mol
overall enthalpy of desorption (DSC) ([5]; all peaks between 80 and 140° C. integrated): 53.3 ± 0.96 kcal/mol
enthalpy of dehydration of the carbonate salt ([5]; difference between endotherms of hydrated and anhydrous salt): 35.4 kcal/mol
decomposition completion, isothermal TGA ([6]; 80° C., after 300 minutes): 77%
time to complete loss of carbon dioxide and water, isothermal TGA ([6]; 100° C.): 150 min
time to complete loss of carbon dioxide and water, isothermal TGA ([6]; 120° C.): 60 min
mass loss, temperature-ramped TGA ([6]; between 65 and 140° C.): 35.2%
mass loss of crystals heated in the oven ([6]; one hour at 120° C.): 34.3%

N=C(N)NN=Cc1cccc(C=NNC(=N)N)n1.O=C(O)O [PyBIGH2(CO3)]
enthalpy of the CO2 release (DSC) ([5]; anhydrous carbonate salt): 17.9 ± 1.4 kcal/mol

N=C(N)N/N=C/c1cccc(/C=N/NC(=N)N)n1 [PyBIG]
ΔH, PyBIG dissolution ([4]; equation 1): 10.2 kcal/mol
ΔH, PyBIG protonation ([4]; equation 2, sum of both protonation enthalpies plus twice water deprotonation): 43.6 kJ/mol and 43.6^a kJ/mol
ΔH, PyBIGH2(CO3)(H2O)4 crystallization [4]: -11.2 kcal/mol
enthalpy of CO2 'binding' ([4]; equations 3-5 combined): -26.24 kcal/mol
enthalpy of absorption incl. crystallization step ([4]; equations 3-6 combined): -37.3 kcal/mol
pKa [7]: 7.6
no decomposition up to (TGA-MS) ([6]; regenerated compound): 190 °C
initial weight loss corresponding to CO2 and H2O loss ([8]; 120° C. in open air): 35.3%
weight loss during accelerated aging (TGA) ([8]; 120° C. in open air for a week, after initial loss): 0.5%
solubility (physchem): ~10 mM (≈ 2470 µg/mL)
pH of saturated solution [9]: about 10
log Kreg [10]: 3.5

NCC(=O)O [glycine]
reaction rate of CO2 with sorbent [3]: ~13.9 kM/s

CNCC(=O)O [sarcosine]
reaction rate of CO2 with sorbent [3]: ca. 18.6 kM/s

O [water]
enthalpy of vaporization [11]: 9.716 kcal/mol
